Experimental data reported in PMC10112938 (Hypertension (Dallas, Tex. : 1979), 2023).

Experiments:
adenosine A2B receptor [1] = biological target: T1, adenosine A2B receptor (Homo sapiens, UniProt P29275); assay: HTRF […]', […]'-cAMP assay in HEK293 cells expressing human A2B receptors; assay type: cell-based
T1 sequence (P29275 1-332): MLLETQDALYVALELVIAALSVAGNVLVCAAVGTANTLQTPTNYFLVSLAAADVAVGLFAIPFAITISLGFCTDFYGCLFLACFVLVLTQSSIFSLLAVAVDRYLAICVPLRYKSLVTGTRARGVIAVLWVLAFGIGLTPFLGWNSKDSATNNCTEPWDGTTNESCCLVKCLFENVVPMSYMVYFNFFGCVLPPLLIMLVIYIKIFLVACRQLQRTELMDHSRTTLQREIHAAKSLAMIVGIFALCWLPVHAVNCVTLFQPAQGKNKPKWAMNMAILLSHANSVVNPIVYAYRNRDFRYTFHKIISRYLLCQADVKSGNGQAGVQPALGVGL

adenosine A2B receptor [2] = biological target: T1, adenosine A2B receptor; assay: as above; assay type: cell-based; remark: listed apart in the source

Row | SMILES | HTRF 3',5'-cAMP assay in HEK293 cells expressing human A2B receptors; antagonism (adenosine A2B receptor [1]) [µmol/L] | HTRF 3',5'-cAMP assay in HEK293 cells expressing human A2B receptors; response a (adenosine A2B receptor [2]) [µmol/L]
1 | CCCn1c(=O)c2[nH]c(-c3ccc(OCC(=O)Nc4ccc(C#N)cc4)cc3)nc2n(CCC)c1=O [MRS 1754] | 1 | 
2 | O=c1[nH]cnc2c1ncn2[C@@H]1O[C@H](CO)[C@@H](O)[C@H]1O [inosine] |  | 3 to 10
